Values quoted from earlier work, collected in patent US20090226898A1, “Mitochondrial markers of ischemia” (Inverness Medical Switzerland GMBH, priority 2005, published 2009).

Experiments:
cardiac myocytes = conditions: immediately before ischemia
[1] = test system: human monocytes and formyl peptide receptor-like 1 (FPRL1)-transfected human embryonic kidney 293 cells; conditions: human monocytes and FPRL1-transfected HEK 293 cells
[2] = test system: human monocytes and formyl peptide receptor-like 1 (FPRL1)-transfected human embryonic kidney 293 cells; conditions: human monocytes and FPRL1-transfected HEK 293 cells; remark: listed apart in the source
[3] = molecular target: T1, FMLP receptor (68-kDa protein) (Homo sapiens, UniProt P21462); conditions: binding to the 68-kDa protein
T1 sequence (P21462 1-350): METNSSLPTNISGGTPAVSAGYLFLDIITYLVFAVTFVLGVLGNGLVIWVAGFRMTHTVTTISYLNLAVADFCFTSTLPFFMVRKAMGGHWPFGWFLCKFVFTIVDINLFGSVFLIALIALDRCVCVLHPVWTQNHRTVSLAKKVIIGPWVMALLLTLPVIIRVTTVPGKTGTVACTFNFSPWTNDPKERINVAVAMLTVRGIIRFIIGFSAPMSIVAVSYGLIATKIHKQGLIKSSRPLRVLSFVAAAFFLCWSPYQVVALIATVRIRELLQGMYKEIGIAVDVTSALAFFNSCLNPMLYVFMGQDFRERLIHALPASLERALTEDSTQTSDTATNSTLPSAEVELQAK

FPR-like 2 (FPRL2) = molecular target: T2, FPR-like 2 (FPRL2) (Homo sapiens, UniProt P25089)
T2 sequence (P25089 1-353): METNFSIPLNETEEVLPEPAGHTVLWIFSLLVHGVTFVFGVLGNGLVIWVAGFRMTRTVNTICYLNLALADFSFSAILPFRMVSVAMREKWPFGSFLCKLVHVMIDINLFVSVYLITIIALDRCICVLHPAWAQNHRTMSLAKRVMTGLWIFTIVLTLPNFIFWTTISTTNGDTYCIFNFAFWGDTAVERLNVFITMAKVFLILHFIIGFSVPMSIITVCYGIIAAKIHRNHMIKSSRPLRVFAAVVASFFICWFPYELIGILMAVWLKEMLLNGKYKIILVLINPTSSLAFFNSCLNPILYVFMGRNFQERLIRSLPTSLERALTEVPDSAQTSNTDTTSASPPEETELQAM

For `C=C(C)[C@H]1Cc2c(ccc3c2O[C@@H]2COc4cc(OC)c(OC)cc4[C@@H]2C3=O)O1` [rotenone], the damage to mitochondria (cardiac myocytes) is given as “reduces damage to mitochondria” and the “production of ROS” value (cardiac myocytes; cardiac myocytes) is given as “decreases the production of ROS”.

For “LL-37: neutrophil granule- and epithelial cell-derived cathelicidin, from hCAP18 (aa1-37) (LLGDFFRKSKEKIGKEFKRIVQRIKDFLRNLVPRTES; Antibacterial peptide LL-37; UniProt P49913 134-170, looked up)”, the calcium mobilization [1] is listed as “can induce calcium mobilization” and the chemotaxis [2] is listed as “chemotactic”.

For RKAMGGHWPFGWFLCKF, the “inhibition of ligand binding” value [3] is listed as “strongest inhibitor of ligand binding”.

In the case of formyl-Met-Leu-Phe [fMLP], the receptor activation (FPR-like 2 (FPRL2)) is given as “only activated by high (micromolar) concentrations”.
